These are literature values, as cited in patent publication US11890366B2, “Method for dyeing keratin material, comprising the use of an organic C1-C6 alkoxy silane and a copolymer of styrene and maleic acid (anhydride)” (Henkel AG & Co. KGaA, priority 2019, dated 2024).

In the case of `O=C([O-])c1c(Cl)c(Cl)c(Cl)c(Cl)c1-c1c2c(Br)cc(=O)c(Br)c-2oc2c(Br)c(O)cc(Br)c12.O=C([O-])c1c(Cl)c(Cl)c(Cl)c(Cl)c1-c1c2c(Br)cc(=O)c(Br)c-2oc2c(Br)c(O)cc(Br)c12.[Na+].[Na+]` [Acid Red 92, disodium salt of 3,4,5,6-tetrachloro-2-(1,4,5,8-tetrabromo-6-hydroxy-3-oxoxanthen-9-yl)benzoic acid], the solubility in water entry (25° C.) is “greater than 10 g/L”.
As for `Nc1cc(S(=O)(=O)[O-])cc2cc(S(=O)(=O)[O-])c(N=Nc3ccccc3)c(O)c12.[Na+].[Na+]` [Acid Red 33, dinatrium salt of 5-amino-4-hydroxy-3-(phenylazo)-naphthalene-2,7-disulphonate], the solubility in water (25° C.) is 2500 µg/mL.
Take `CCN(Cc1cccc(S(=O)(=O)[O-])c1)c1ccc(C(=C2C=CC(=[N+](CC)Cc3cccc(S(=O)(=O)[O-])c3)C=C2)c2ccccc2S(=O)(=O)[O-])cc1.[Na+].[Na+]` [Acid Blue 9]: the water solubility entry (25° C.) was “greater than 20 % by weight”.
On to `O=C([O-])C1=NN(c2ccc(S(=O)(=O)[O-])cc2)C(=O)C1N=Nc1ccc(S(=O)(=O)[O-])cc1.[Na+].[Na+].[Na+]` (centres unmarked) [Acid Yellow 23, trisodium salt of 4,5-dihydro-5-oxo-1-(4-sulfophenyl)-4-((4-sulfophenyl)azo)-1H-pyrazole-3-carboxylic acid], for which the “solubility in water (in words)” value (water at 25° C.) is listed as “readily soluble”.
Regarding `O=S(=O)([O-])c1ccc(N=Nc2c(O)ccc3ccccc23)cc1.[Na+]` [Acid Orange 7, sodium salt of 4-[(2-hydroxy-1-naphthyl)azo]benzenesulfonate], where the note is “25° C.”, the solubility in water entry is listed as “more than 7 g/L”.
